Data published in patent US9061981B2, “Diphenyl substituted cyclohexane derivatives, useful as modulators of the estrogen receptors beta” (Acadia Pharmaceuticals Inc., priority 2011, dated 2015).

Assays:
[1] = tested on: nigrostriatal dopamine neurons; test: Tyrosine hydroxylase immunofluorescence in SN and STR after 6OHDA lesion; assay type: in vivo, Male rats; conditions: 6OHDA rats, once daily 7 days sc; 10 mg/kg (estradiol 100 μg/kg)
Procedure: (§1) Male rats received baseline assessment of weight, motor function (spontaneous locomotor behavior, rotorod performance) and sensorimotor gating (prepulse inhibition). Subjects were assigned to treatment conditions to equalize performance on all these measures. Subjects were then treated once daily for 7 days with either sesame oil vehicle, estradiol (100 μg/kg sc), Comparative substance 131 (10 mg/kg sc), Compound 8 (10 mg/kg sc), Comparative substance 623 (10 mg/kg sc) or Comparative substance 957 (10 mg/kg sc). On the second day of treatment, subjects received bilateral sham or 6OHDA lesions (8 μg in 4 μl) of the substantia nigra (A/P−5.0 mm, M/L±1.6 mm, D/V−8.2 mm) following the atlas of Paxinos and Watson (Paxinos, G., Watson, C., The Rat Brain in Stereotaxic Coordinates, Fourth Edition, New York: Academic Press, Spiral Bound, 1998). Behavioral assessments of motor function (spontaneous locomotion, rotorod and traversing a challenging beam), cognition (novel object recognition) and sensorimotor gating (prepulse inhibition) began after the final day of treatment. Following behavioral assessment, SN and striatal tissue were collected in order to determine the intactness of the nigrostriatal dopamine system.
Comparative compound 131 and Compound 8 were compared with estradiol for their ability to protect nigrostriatal dopamine neurons as measured by tyrosine hydroxylase (TH) immunohistochemistry in the SN and striatum (STR).

ERβ [2] = molecular target: T1, ERβ (Homo sapiens, UniProt Q92731); test: Competitive 3H-estradiol binding assay, ERβ; set-up: expressed in transfected cells; host or cells: HEK293 cells, transient transfection
Procedure: (§2) Cells were then harvested by scraping in ice-cold PBS and subsequently lysed using a cold buffer containing 10 mM Tris pH 7.4, 1 mM EDTA, 1 mM DTT before being subjected to polytron twice for 10 seconds. Cytosolic extracts were isolated by centrifugation at 15000 g for 30 minutes at 4° C. Competitive binding of the test compounds or the estradiol control was performed on 20 μL extract by overnight incubation at 4° C. in a total volume of 100 μL containing 1 nM ^3H-estradiol (Perkin Elmer, Boston, Mass.). The bound fraction was separated from the unbound one by the addition of 100 μL of Dextran coated charcoal, incubated for 10 minutes and subsequent centrifugation at 1000 rpm for 10 minutes. Samples (100 μL per sample) were then analyzed by liquid scintillation. Data was then analyzed using the curve fitting software GraphPad Prism.

[3] = Microsomal bioavailability (Table 2); assay type: in vitro ADME; conditions: read-out: Microsomal bioavailability F (%)
ERβ [4] = molecular target: T1, ERβ; test: Luciferase reporter gene assay (3*ERE) in HEK293 cells, ERβ; assay type: cell-based; set-up: expressed in transfected cells; host or cells: HEK293 cells, transient transfection
Procedure: (§3) HEK293 cells were grown to 70% confluency in DMEM containing 10% calf serum (Hyclone) prior to transfection. On the day of transfection (day 1), expression vectors for ERα or ERβ were cotransfected along a construct containing a synthetic 3*ERE upstream of the luciferase gene (Panomics), using Polyfect (Qiagen) per manufacturer's recommendations (ERE being estrogen response element). Sixteen hours post-transfection, cells were incubated in serum free DMEM. […] Cells extracts were then obtained by lyzing and the Luciferase activity measured, all of these steps performed using a commercially available kit (Promega).

ERα [5] = molecular target: T2, ERα (Homo sapiens, UniProt P03372); test: R-SAT functional assay, ERα; assay type: cell-based; set-up: expressed in transfected cells; host or cells: NIH-3T3 fibroblasts, transient transfection; conditions: NIH-3T3 cells
T2 sequence (P03372 1-595): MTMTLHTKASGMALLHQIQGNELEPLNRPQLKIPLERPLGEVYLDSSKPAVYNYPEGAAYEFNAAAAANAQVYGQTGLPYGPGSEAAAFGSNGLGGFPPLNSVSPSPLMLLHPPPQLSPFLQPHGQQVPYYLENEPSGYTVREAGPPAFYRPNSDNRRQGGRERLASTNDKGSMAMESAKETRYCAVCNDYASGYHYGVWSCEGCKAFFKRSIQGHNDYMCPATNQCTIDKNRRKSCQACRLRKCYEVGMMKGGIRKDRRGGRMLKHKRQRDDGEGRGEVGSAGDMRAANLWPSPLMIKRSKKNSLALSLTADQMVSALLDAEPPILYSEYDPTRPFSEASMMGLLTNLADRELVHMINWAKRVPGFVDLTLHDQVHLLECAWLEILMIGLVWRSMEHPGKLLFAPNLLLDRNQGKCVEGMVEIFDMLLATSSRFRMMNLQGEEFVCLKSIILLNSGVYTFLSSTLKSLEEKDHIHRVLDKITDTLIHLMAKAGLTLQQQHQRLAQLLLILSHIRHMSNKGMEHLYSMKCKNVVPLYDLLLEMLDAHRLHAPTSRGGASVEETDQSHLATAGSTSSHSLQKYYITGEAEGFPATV
Excerpt: (§4) R-SAT® (Receptor Selection and Amplification Technology) is a cell-based functional assay that allows one to monitor receptor-dependent proliferative responses and has been described elsewhere. […] This process is achieved by partial cellular transformation via loss of contact inhibition and growth factor dependency. Monitoring is achieved by transfecting the cells with a β-galactosidase reporter gene vector whose expression is under a constitutively active promoter. Briefly, NIH-3T3 fibroblasts were plated overnight in 96-wells plates in DMEM 10% calf serum (Hyclone) and grown to 60-70% confluency prior to transfection. Transient transfections were performed using Polyfect (Qiagen) according to manufacturer's instructions. Typically a transfection mix would consist of the receptor and the β-galactosidase expression vectors. Sixteen hours post-transfection, cells were incubated with different doses of ligand in DMEM containing 30% Ultraculture (Hyclone) and 0.4% calf serum (Hyclone) to generate a dose response curve. […] Plates were read using a microplate reader at 420 nm. Data from R-SAT® assays were fit to the equation: r=A+B(x/(x+c)), where A=minimum response, B=maximum response minus minimum response, c=EC50, r=response, and x=concentration of ligand. Curves were generated using the curve fitting softwares Excel Fit and GraphPad Prism (San Diego, Calif.). Luciferase Reporter Gene Assay

ERβ [6] = molecular target: T1, ERβ; test: R-SAT functional assay, ERβ; assay type: cell-based; set-up: expressed in transfected cells; host or cells: transient transfection
ERα [7] = molecular target: T2, ERα; test: Competitive 3H-estradiol binding assay, ERα; conditions: 1 nM 3H-estradiol, HEK293T cytosolic extract; read-out: Binding ERα pKi (converted)
Procedure: as §2, with “HEK293T cells were transiently transfected for 48 hours with expression vectors encoding ERα or ERβ, before being serum starved for 4-6 hours. Cells” for “Cells”

ERβ [8] = molecular target: T1, ERβ; test: R-SAT functional assay, ERβ; assay type: cell-based; set-up: expressed in transfected cells; host or cells: transient transfection; conditions: NIH3T3; NIH-3T3 cells; read-out: R-SAT Erβ % Eff
Excerpt: as §4

ERα [9] = molecular target: T2, ERα; test: Luciferase reporter gene assay (3*ERE) in HEK293 cells, ERα; assay type: cell-based; set-up: expressed in transfected cells; host or cells: transient transfection; conditions: 48 hours
Procedure: as §3

[10] = tested on: bilateral 6-hydroxydopamine (6OHDA) lesion of the substantia nigra; test: Bilateral 6OHDA lesion of the substantia nigra, behavioral assessment; assay type: in vivo, Male rats; conditions: 6OHDA rats, once daily 7 days sc; 10 mg/kg (estradiol 100 μg/kg)
Procedure: as §1

T1 sequence (Q92731 whole entry, species assumed): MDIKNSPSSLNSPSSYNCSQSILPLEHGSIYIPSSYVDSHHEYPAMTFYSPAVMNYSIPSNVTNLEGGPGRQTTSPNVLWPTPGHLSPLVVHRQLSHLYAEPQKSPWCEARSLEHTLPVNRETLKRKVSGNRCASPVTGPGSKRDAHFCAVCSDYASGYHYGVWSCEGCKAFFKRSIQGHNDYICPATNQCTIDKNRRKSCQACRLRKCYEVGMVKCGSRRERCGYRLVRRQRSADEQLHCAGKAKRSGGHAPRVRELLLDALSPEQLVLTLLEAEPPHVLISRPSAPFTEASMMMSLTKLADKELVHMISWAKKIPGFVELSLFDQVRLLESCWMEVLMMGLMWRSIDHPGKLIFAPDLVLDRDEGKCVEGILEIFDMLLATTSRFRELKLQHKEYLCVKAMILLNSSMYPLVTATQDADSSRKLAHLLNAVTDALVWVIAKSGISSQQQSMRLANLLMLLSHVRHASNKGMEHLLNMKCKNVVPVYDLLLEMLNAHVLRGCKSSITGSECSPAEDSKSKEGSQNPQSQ

Oc1ccc(C2(c3ccccc3)CCCCC2)cc1 [Compound 131]
percent immunopositive and mean pixel intensity of TH immunofluorescence in the STR [1]: increase in percentage of the image that was immunopositive and increased mean pixel intensity | percent immunopositive, mean cell size and mean pixel intensity of TH immunofluorescence in the SN [1]: improved percent immunopositive, mean cell size and mean pixel intensity | tyrosine hydroxylase positive cell number in the SN [1]: prevented the reduction in cell number | Ki (ERβ [2]): 50.1 nM | Microsomal bioavailability (predicted from microsomes) [3]: 0% | EC50 (ERβ [4]): 20 nM | Emax (ERβ [4]; HEK293 cells, 48 hours, read-out: Luciferase Erβ % Eff): 80% | R-SAT Erα % Eff (ERα [5]): 42% | EC50 (ERβ [6]): 31.6 nM | Ki (ERα [7]): 1000 nM | Emax (ERβ [8]): 71% | Luciferase Erα % Eff (ERα [9]): 29% | EC50 (ERα [9]; na = not active, read-out: Luciferase Erα pEC50 (converted)): 15800 nM | motor performance (spontaneous locomotor activity, rotorod, challenging beam) [10]: prevented the impairment | novel object recognition (cognition) [10]: showed improved memory | prepulse inhibition (sensorimotor gating) [10]: prevented the 6OHDA-induced deficit in PPI
